One experiment concerns ER+ PDX lines (BCaPE). Conditions: four CENMP- PDX lines compared with three CENMP+ lines; p=0.02; cited from earlier work.
The subject of the next experiment is ZR-75 cells. As to the kind of experiment: Growth assay (Alamar blue) in ZR-75 cells with knockdown of DDR genes. Format: cell-based, human. To be noted: siCETN2, siNEIL2 and siERCC1 ZR-75 cells (transient siRNA) vs siScr; media containing full serum. The procedure:
ZR75.1 and MCF7 parental cells were from ATCC, 2015 and 2017 respectively, and tested for mycoplasma contamination upon arrival using the Lonza Mycoalert Plus Kit (CAT# LT07-710) as per the manufacturer's instructions, and annually since. Both lines were maintained in RPMI 1640 1X w/ L-glutamine and 1% Penicillin/Streptomycin (Sigma-Aldrich, CAT#P4333—100 mL). Cell lines used for experiments were <20 passages. Transient transfections with esiRNA (Sigma-Aldrich) towards human NEIL2 (CAT#EHU158461), CETN2 (CAT#EHU137031), ERCC1 (CAT#EHU156971), RAD23B (CAT#EHU145881) and POLM (CAT#SASI_Hs02_003344553), or scrambled control used at 50 nmoles/L each were delivered using Polypluys jetPRIME® transfection reagent (CAT#114-07) as per the manufacturer's instructions. Cells were plated for experiments 48 hrs after transfection. Stable selection with puromycin after infection with lentivirus harboring RNAi oligos (ABM) against human NEIL2 (CAT#i014980a), CETN2 (CAT#i004479a), and ERCC1 (CAT#i007023a) or scrambled control (CAT#i000238c) was conducted using manufacturer's protocol. Growth assays were repeated independently in triplicate as previously reported (50) using Alamar blue to detect cell viability. Final readings were between 4-6 days after initial drug treatment and fold change plotted for analysis. […]
(The colour change of resazurin is a common sign of viable cells or microbes.)

Experiment [1] relates to MCF7 cells. As to the kind of experiment: FACS analysis for PCNA in MCF7 cells after fulvestrant treatment. Format: cell-based, human. Conditions: MCF7 cells with stable knockdown of CETN2, NEIL2, ERCC1 and MLH1 relative to control cells; 100 nM fulvestrant. Here is the method: (§1) FIGS. 17A-17E. Dysregulation of CETN2, NEIL2 and ERCC1 expression in ER+ breast cancer cells alters regulation of G1/S transition of the cell cycle. FIG. 17A & FIG. 17D) Histograms representing percentage of siScr, siCETN2, siNEIL2, siERCC1 and siMLH1 MCF7 cells that are Ki67 (FIG. 17A) and PCNA (FIG. 17D) positive after 48 hours of treatment with 100 nM of fulvestrant. Columns represent the mean and error bars the standard deviation. Student's t-test determined p-values. FIG. 17B-FIG. 17C) Boxplots indicating levels of CDK4 mRNA and PCNA protein level in CETN2, ERCC1, NEIL2, PRKDC proficient (CEN+PRKDCwt) and deficient (CEN-PRKDCmut) ER+ breast tumors based on values from microarray and RPPA data from TCGA. Wilcoxon Rank Sum test determined p-values. FIG. 17E) Histograms depicting percent growth inhibition in fulvestrant and abemaciclib (CDK4/6i)-treated MCF7 cells stably selected for RNAi-mediated knockdown of control, CETN2, ERCC1 or NEIL2, relative to vehicle treated cells. […] Student's t-test determined p-values.
(§2) RNA from cell lines was extracted using the Qiagen RNeasy Mini Kit (CAT#74106) and converted to cDNA using Bio-Rad Reverse Transcriptase iScript (CAT#TX1708891BAY), both following manufacturers' instructions. cDNA was quantified by qPCR using Bio-Rad SsoAdvanced Universal SYBR Green supermix (CAT#17525272) at the manufacturers specifications. […]
Background: A flow cytometer gives signals particle by particle.

For experiment [2], the system named is MCF7 cells. As to the kind of experiment: Ki67 immunofluorescence in MCF7 cells before and after fulvestrant treatment. The format is cell-based, human. To be noted: siCETN2, siNEIL2, siERCC1 MCF7 cells vs siScr control; 100 nM fulvestrant, 48 hours. The procedure: as §1, §2
Experiment [3] has as its system MCF7 cells. Kind of experiment: Growth assay (Alamar blue) in MCF7 cells with knockdown of DDR genes. The format is cell-based, human. Conditions: for sensitivity (growth inhibition relative to vehicle treated cells): 100 nM fulvestrant, 1 μM Palbociclib. Here is the method:
ZR75.1 and MCF7 parental cells were from ATCC, 2015 and 2017 respectively, and tested for mycoplasma contamination upon arrival using the Lonza Mycoalert Plus Kit (CAT# LT07-710) as per the manufacturer's instructions, and annually since. Both lines were maintained in RPMI 1640 1X w/ L-glutamine and 1% Penicillin/Streptomycin (Sigma-Aldrich, CAT#P4333—100 mL). Cell lines used for experiments were <20 passages. Transient transfections with esiRNA (Sigma-Aldrich) towards human NEIL2 (CAT#EHU158461), CETN2 (CAT#EHU137031), ERCC1 (CAT#EHU156971), RAD23B (CAT#EHU145881) and POLM (CAT#SASI_Hs02_003344553), or scrambled control used at 50 nmoles/L each were delivered using Polypluys jetPRIME® transfection reagent (CAT#114-07) as per the manufacturer's instructions. Cells were plated for experiments 48 hrs after transfection. Stable selection with puromycin after infection with lentivirus harboring RNAi oligos (ABM) against human NEIL2 (CAT#i014980a), CETN2 (CAT#i004479a), and ERCC1 (CAT#i007023a) or scrambled control (CAT#i000238c) was conducted using manufacturer's protocol. Growth assays were repeated independently in triplicate as previously reported (50) using Alamar blue to detect cell viability. Final readings were between 4-6 days after initial drug treatment and fold change plotted for analysis. Fulvestrant(Fisher Scientific CAT#506242), 4-OHT(Sigma-Aldrich CAT#H7904), Palbociclib (ThermoFisher CAT#508548) and Abemaciclib (ThermoFisher CAT#NC0577560), dissolved in DMSO, and β-estradiol (Sigma-Aldrich CAT#E2758-1G), dissolved in water, at 10 mmoles/L were stored long term at −80 C with working stocks at −20 C. Cells were treated 24 hours after plating with fresh drug added every 48 hrs until the end of the experiment. Estradiol addition experiments were conducted in phenol red-free DMEM with 10% charcoal stripped serum.

The structures appear in SMILES notation.

For `CC(C)(C#N)c1cc(Cn2cncn2)cc(C(C)(C)C#N)c1` [anastrozole], in the experiment with ER+ PDX lines (BCaPE), the “tumor viability after treatment (AUC)” value is given as “significantly higher tumor viability”.

Turning to `C[C@]12CC[C@@H]3c4ccc(O)cc4C[C@@H](CCCCCCCCC[S+]([O-])CCCC(F)(F)C(F)(F)F)[C@H]3[C@@H]1CC[C@@H]2O` (stereo partly drawn) [fulvestrant, Fulvestrant], the “growth inhibition in response to treatment” value in the experiment on ZR-75 cells is on record as “significant lack of growth inhibition”; with MCF7 cells [3] (siCETN2, siNEIL2 and siERCC1 MCF7 cells (transient siRNA) vs siScr, media containing full serum), “significant lack of growth inhibition”. In addition, in the experiment with MCF7 cells [1], the “PCNA positivity after treatment” value was “Increased PCNA positivity”. For the same compound, in the experiment with MCF7 cells [2], the “Ki67 inhibition in response to treatment” value was “profound lack of Ki67 inhibition”. Further, the “growth phenotype under treatment” value in the experiment with MCF7 cells [3] (MCF7 cells stably selected with lentiviral RNAi against CETN2, NEIL2, ERCC1) was “Fulvestrant-independent”. For the same compound, in the experiment on MCF7 cells [3] (MCF7 cells with siRNA knockdown of negative control genes RAD23B and POLM), the “growth response to treatment” value is on record as “did not alter growth response”. The “sensitivity (growth inhibition relative to vehicle treated cells)” value is “resistance” with MCF7 cells [3] (MCF7 cells with stable knockdown of CETN2, NEIL2 or ERCC1) and “comparable sensitivity” with MCF7 cells [3] (control MCF7 cells (scrambled RNAi)).

The values are drawn from patent US20220249476A1, “MutL LOSS PREDICTS SENSITIVITY TO CDK4/6 INHIBITORS IN CANCER” (Baylor College of Medicine, priority 2018, published 2022).
